Measurements as given in patent US20060069132A1, “Azolecarboxamide herbicides” (priority 2004, published 2006).

Key:
[1] = test system: small flower umbrella sedge; experiment: Test B flooded paddy test; type: in vivo, Cyperus difformis; conditions: 1000 g ai/ha, scale 0 to 100 (0 no effect, 100 complete control)
Method in brief: (§1)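 Plants grow to 1- to 4-leaf stage (2–18 cm) for postemergence spraying, or to 2-leaf stage for the paddy test. Formulated compound is applied. Greenhouse holding lasts 13–15 days. Response is scored visually relative to controls, 0 no effect to 100 complete control; a dash means no result.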

ducksalad = experiment: Test B flooded paddy test; type: in vivo, Heteranthera limosa; conditions: 1000 g ai/ha, scale 0 to 100 (0 no effect, 100 complete control)
Method in brief: as §1

barnyardgrass [2] = experiment: Test B pre-/postemergence herbicide test; type: in vivo, Echinochloa crus-galli; conditions: for Plant response rating (0 to 100 scale), Barnyardgrass: 0 is no effect, preemergence
Method in brief: (§2)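 Species tested were Echinochloa crus-galli, Ipomoea coccinea, Xanthium strumarium and Oryza sativa, treated both before emergence and at the 1- to 4-leaf stage; rice and barnyardgrass were also tested under flooding at 2 leaves. Greenhouse incubation lasted 13–15 days before visual 0–100 scoring.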

giant foxtail = experiment: Test B pre-/postemergence herbicide test; type: in vivo, Setaria faberi; conditions: for Plant response rating (0 to 100 scale), Foxtail, Giant: 0 is no effect, preemergence
Method in brief: (§3)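 Visual rating, 0 (no effect) to 100 (complete control), versus untreated controls after 13–15 d in greenhouse. Pre- and postemergence applications (postemergence plants 2–18 cm, 1–4 leaves); flooded paddy arm at 2-leaf stage. Compounds in non-phytotoxic solvent plus surfactant.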

rice = experiment: Test B flooded paddy test; type: in vivo, Oryza sativa; conditions: 1000 g ai/ha, scale 0 to 100 (0 no effect, 100 complete control)
Method in brief: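 Read-out: visual comparison with controls, scored 0 to 100, where 100 means complete control and 0 no effect. Formulated chemicals were applied postemergence to plants 2–18 cm tall (1- to 4-leaf), or to flooded-paddy plants at the 2-leaf stage, then held 13 to 15 days under glass.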

lambsquarters = experiment: Test B pre-/postemergence herbicide test; type: in vivo, Chenopodium album; conditions: for Plant response rating (0 to 100 scale), Lambsquarters: 0 is no effect, 100 is complete control, preemergence; for Lambsquarters plant response rating: scale 0 (no effect) to 100 (complete control)
Method in brief: as §3

barnyardgrass [3] = experiment: Test B flooded paddy test; type: in vivo, Echinochloa crus-galli; conditions: 1000 g ai/ha, scale 0 to 100 (0 no effect, 100 complete control)
Method in brief: as §1

blackgrass = experiment: Test B postemergence herbicide test; type: in vivo, Alopecurus myosuroides
Method in brief: as §1

morningglory = experiment: Test B pre-/postemergence herbicide test; type: in vivo, Ipomoea coccinea; conditions: for Plant response rating (0 to 100 scale), Morningglory: 0 is no effect, 100 is complete control, preemergence; for Morningglory plant response rating: scale 0 (no effect) to 100 (complete control)
Method in brief: as §2

cocklebur = experiment: Test B pre-/postemergence herbicide test; type: in vivo, Xanthium strumarium; conditions: for Plant response rating (0 to 100 scale), Cocklebur: 0 is no effect, preemergence
Method in brief: as §2

pigweed = experiment: Test B pre-/postemergence herbicide test; type: in vivo, Amaranthus retroflexus; conditions: for Plant response rating (0 to 100 scale), Pigweed: 0 is no effect, 100 is complete control, preemergence; for Pigweed plant response rating: scale 0 (no effect) to 100 (complete control)
Method in brief: as §3

corn = experiment: Test B pre-/postemergence herbicide test; type: in vivo, Zea mays; conditions: for Plant response rating (0 to 100 scale), Corn: 0 is no effect, preemergence
Method in brief: as §3

large crabgrass = experiment: Test B pre-/postemergence herbicide test; type: in vivo, Digitaria sanguinalis; conditions: for Plant response rating (0 to 100 scale), Crabgrass, Large: 0 is no effect, preemergence
Method in brief: as §3

wheat = experiment: Test B postemergence herbicide test; type: in vivo, Triticum aestivum; set-up: key to Wheat plant response rating: 0 = no effect, 100 = complete control
Method in brief: (§4)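 Treated at 2-leaf (paddy) or 1–4-leaf, 2–18 cm (postemergence); greenhouse 13–15 d; visual score vs control, 0 none to 100 complete control; dash = not tested.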

velvetleaf = experiment: Test B pre-/postemergence herbicide test; type: in vivo, Abutilon theophrasti; conditions: for Plant response rating (0 to 100 scale), Velvetleaf: 0 is no effect, 100 is complete control, preemergence; for Velvetleaf plant response rating: scale 0 (no effect) to 100 (complete control)
Method in brief: as §3

wild oat = experiment: Test B postemergence herbicide test; type: in vivo, Avena fatua; conditions: scale 0 (no effect) to 100 (complete control)
Method in brief: as §4

Surinam grass = experiment: Test B pre-/postemergence herbicide test; type: in vivo, Urochloa decumbens; conditions: for Plant response rating (0 to 100 scale), Surinam Grass: 0 is no effect, 100 is complete control, preemergence; for Surinam Grass plant response rating: scale 0 (no effect) to 100 (complete control)
Method in brief: as §3

[4] = 125 g ai/ha, 100 is complete control
[5] = 125 g ai/ha, visual rating, scale 0 (no effect) to 100 (complete control), postemergence
[6] = postemergence, 500 g ai/ha, scale 0 to 100, 0 is no effect, 100 is complete control
[7] = 125 g ai/ha, visual rating, postemergence
[8] = 500 g ai/ha, scale 0 to 100, 0 no effect, 100 complete control, preemergence
[9] = Postemergence, 500 g ai/ha, scale 0 (no effect) to 100 (complete control)

CCNC(=O)c1ccc(F)c(NC(=O)c2nn(C(C)(C)C)nc2C)c1 [Compound 377]
40: Ducksalad plant response rating (ducksalad) | Rice plant response rating (rice) | Velvetleaf plant response rating (velvetleaf; Postemergence, 500 g ai/ha)
20: Plant response rating (0 to 100 scale), Crabgrass, Large (large crabgrass; [4]) | Wheat plant response rating (wheat; [8]) | Velvetleaf plant response rating (velvetleaf; [7])
10: Foxtail, Giant plant response rating (giant foxtail; [6]) | Corn plant response rating (corn; [6]) | Surinam Grass plant response rating (Surinam grass; Postemergence, 500 g ai/ha)
0: Plant response rating (0 to 100 scale), Barnyardgrass (barnyardgrass [2]; [4]) | Barnyardgrass plant response rating (barnyardgrass [2]; [5]) | Barnyardgrass plant response rating (barnyardgrass [2]; [6]) | Plant response rating (0 to 100 scale), Foxtail, Giant (giant foxtail; [4]) | Foxtail, Giant plant response rating (giant foxtail; [5]) | Plant response rating (0 to 100 scale), Lambsquarters (lambsquarters; 125 g ai/ha) | Blackgrass plant response rating (blackgrass; [5]) | Blackgrass plant response rating (blackgrass; [6]) | Plant response rating (0 to 100 scale), Morningglory (morningglory; 125 g ai/ha) | Morningglory plant response rating (morningglory; [7]) | Plant response rating (0 to 100 scale), Cocklebur (cocklebur; [4]) | Cocklebur plant response rating (cocklebur; [5]) | Cocklebur plant response rating (cocklebur; [6]) | Plant response rating (0 to 100 scale), Corn (corn; [4]) | Corn plant response rating (corn; [5]) | Crabgrass, Large plant response rating (large crabgrass; [5]) | Crabgrass, Large plant response rating (large crabgrass; [6]) | Wheat plant response rating (wheat; [5]) | Wheat plant response rating (wheat; [9]) | Plant response rating (0 to 100 scale), Velvetleaf (velvetleaf; 125 g ai/ha) | Oat, Wild plant response rating (wild oat; [7]) | Oat, Wild plant response rating (wild oat; Postemergence, 500 g ai/ha) | Plant response rating (0 to 100 scale), Surinam Grass (Surinam grass; 125 g ai/ha) | Surinam Grass plant response rating (Surinam grass; [7])
80: Sedge, Umbrella plant response rating [1]
70: Lambsquarters plant response rating (lambsquarters; Postemergence, 500 g ai/ha)
30: Barnyardgrass plant response rating (barnyardgrass [3]) | Pigweed plant response rating (pigweed; [7])
60: Lambsquarters plant response rating (lambsquarters; [7]) | Morningglory plant response rating (morningglory; Postemergence, 500 g ai/ha) | Plant response rating (0 to 100 scale), Pigweed (pigweed; 125 g ai/ha)

Cc1nn(C(C)C)nc1C(=O)Nc1cc(C(=O)N(C)C)ccc1F [Compound 400]
30: Velvetleaf plant response rating (velvetleaf; Postemergence, 500 g ai/ha)
80: Sedge, Umbrella plant response rating [1]
0: Plant response rating (0 to 100 scale), Barnyardgrass (barnyardgrass [2]; [4]) | Barnyardgrass plant response rating (barnyardgrass [2]; [5]) | Barnyardgrass plant response rating (barnyardgrass [2]; [9]) | Plant response rating (0 to 100 scale), Foxtail, Giant (giant foxtail; [4]) | Foxtail, Giant plant response rating (giant foxtail; [5]) | Foxtail, Giant plant response rating (giant foxtail; [9]) | Rice plant response rating (rice) | Plant response rating (0 to 100 scale), Lambsquarters (lambsquarters; 125 g ai/ha) | Lambsquarters plant response rating (lambsquarters; [7]) | Barnyardgrass plant response rating (barnyardgrass [3]) | Blackgrass plant response rating (blackgrass; [5]) | Blackgrass plant response rating (blackgrass; [9]) | Plant response rating (0 to 100 scale), Morningglory (morningglory; 125 g ai/ha) | Morningglory plant response rating (morningglory; [7]) | Morningglory plant response rating (morningglory; Postemergence, 500 g ai/ha) | Plant response rating (0 to 100 scale), Cocklebur (cocklebur; [4]) | Cocklebur plant response rating (cocklebur; [5]) | Cocklebur plant response rating (cocklebur; [9]) | Plant response rating (0 to 100 scale), Pigweed (pigweed; 125 g ai/ha) | Pigweed plant response rating (pigweed; [7]) | Plant response rating (0 to 100 scale), Corn (corn; [4]) | Corn plant response rating (corn; [5]) | Corn plant response rating (corn; [9]) | Plant response rating (0 to 100 scale), Crabgrass, Large (large crabgrass; [4]) | Crabgrass, Large plant response rating (large crabgrass; [5]) | Crabgrass, Large plant response rating (large crabgrass; [9]) | Wheat plant response rating (wheat; [5]) | Wheat plant response rating (wheat; [8]) | Wheat plant response rating (wheat; [9]) | Plant response rating (0 to 100 scale), Velvetleaf (velvetleaf; 125 g ai/ha) | Velvetleaf plant response rating (velvetleaf; [7]) | Oat, Wild plant response rating (wild oat; [7]) | Oat, Wild plant response rating (wild oat; Postemergence, 500 g ai/ha) | Plant response rating (0 to 100 scale), Surinam Grass (Surinam grass; 125 g ai/ha) | Surinam Grass plant response rating (Surinam grass; [7]) | Surinam Grass plant response rating (Surinam grass; Postemergence, 500 g ai/ha)
10: Lambsquarters plant response rating (lambsquarters; Postemergence, 500 g ai/ha)
20: Ducksalad plant response rating (ducksalad) | Pigweed plant response rating (pigweed; Postemergence, 500 g ai/ha)
